A value given as a limit tells only on which side of the number the result lay.

For experiment [1], the target named is JAK-2 enzyme (Homo sapiens, UniProt O60674). Put plainly: JAK2 Inhibition Assay.
In experiment [2] the target is T1, JAK3 (Homo sapiens, UniProt P52333).
T1 sequence (P52333 1-1124): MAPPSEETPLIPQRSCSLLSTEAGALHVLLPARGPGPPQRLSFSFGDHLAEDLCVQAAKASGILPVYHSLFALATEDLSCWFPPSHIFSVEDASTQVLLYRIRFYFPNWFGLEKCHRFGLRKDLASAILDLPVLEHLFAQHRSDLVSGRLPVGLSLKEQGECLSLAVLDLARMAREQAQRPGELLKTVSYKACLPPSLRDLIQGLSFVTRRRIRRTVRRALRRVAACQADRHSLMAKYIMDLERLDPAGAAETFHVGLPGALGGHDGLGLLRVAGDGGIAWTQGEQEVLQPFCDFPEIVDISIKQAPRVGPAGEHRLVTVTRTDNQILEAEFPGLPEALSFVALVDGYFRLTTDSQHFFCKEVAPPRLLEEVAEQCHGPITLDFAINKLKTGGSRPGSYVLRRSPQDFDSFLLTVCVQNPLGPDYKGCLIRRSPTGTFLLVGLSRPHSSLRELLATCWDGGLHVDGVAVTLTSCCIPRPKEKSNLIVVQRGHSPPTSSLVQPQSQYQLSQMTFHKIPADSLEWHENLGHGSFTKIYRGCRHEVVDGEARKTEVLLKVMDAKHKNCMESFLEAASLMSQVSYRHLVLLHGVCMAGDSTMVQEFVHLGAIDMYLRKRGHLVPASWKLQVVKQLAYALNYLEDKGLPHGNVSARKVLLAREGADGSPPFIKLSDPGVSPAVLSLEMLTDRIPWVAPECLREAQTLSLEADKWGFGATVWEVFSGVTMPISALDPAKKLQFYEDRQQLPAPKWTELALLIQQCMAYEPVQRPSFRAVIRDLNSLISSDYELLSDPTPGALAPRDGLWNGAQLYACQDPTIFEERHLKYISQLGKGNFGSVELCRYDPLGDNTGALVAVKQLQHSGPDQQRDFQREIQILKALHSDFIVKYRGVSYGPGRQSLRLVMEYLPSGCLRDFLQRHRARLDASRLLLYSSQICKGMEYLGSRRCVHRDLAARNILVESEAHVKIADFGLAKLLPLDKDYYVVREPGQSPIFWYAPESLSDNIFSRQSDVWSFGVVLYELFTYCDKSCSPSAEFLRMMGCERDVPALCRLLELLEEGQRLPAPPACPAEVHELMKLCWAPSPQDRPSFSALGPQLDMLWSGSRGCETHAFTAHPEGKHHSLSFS
Put plainly: JAK3 Inhibition Assay. To be noted: 1 nM JAK3, 1 μM poly(Glu)4Tyr, 5 μM ATP, 25° C., 33P incorporation. The format is biochemical.

Chain of JAK-2 enzyme (O60674 whole entry): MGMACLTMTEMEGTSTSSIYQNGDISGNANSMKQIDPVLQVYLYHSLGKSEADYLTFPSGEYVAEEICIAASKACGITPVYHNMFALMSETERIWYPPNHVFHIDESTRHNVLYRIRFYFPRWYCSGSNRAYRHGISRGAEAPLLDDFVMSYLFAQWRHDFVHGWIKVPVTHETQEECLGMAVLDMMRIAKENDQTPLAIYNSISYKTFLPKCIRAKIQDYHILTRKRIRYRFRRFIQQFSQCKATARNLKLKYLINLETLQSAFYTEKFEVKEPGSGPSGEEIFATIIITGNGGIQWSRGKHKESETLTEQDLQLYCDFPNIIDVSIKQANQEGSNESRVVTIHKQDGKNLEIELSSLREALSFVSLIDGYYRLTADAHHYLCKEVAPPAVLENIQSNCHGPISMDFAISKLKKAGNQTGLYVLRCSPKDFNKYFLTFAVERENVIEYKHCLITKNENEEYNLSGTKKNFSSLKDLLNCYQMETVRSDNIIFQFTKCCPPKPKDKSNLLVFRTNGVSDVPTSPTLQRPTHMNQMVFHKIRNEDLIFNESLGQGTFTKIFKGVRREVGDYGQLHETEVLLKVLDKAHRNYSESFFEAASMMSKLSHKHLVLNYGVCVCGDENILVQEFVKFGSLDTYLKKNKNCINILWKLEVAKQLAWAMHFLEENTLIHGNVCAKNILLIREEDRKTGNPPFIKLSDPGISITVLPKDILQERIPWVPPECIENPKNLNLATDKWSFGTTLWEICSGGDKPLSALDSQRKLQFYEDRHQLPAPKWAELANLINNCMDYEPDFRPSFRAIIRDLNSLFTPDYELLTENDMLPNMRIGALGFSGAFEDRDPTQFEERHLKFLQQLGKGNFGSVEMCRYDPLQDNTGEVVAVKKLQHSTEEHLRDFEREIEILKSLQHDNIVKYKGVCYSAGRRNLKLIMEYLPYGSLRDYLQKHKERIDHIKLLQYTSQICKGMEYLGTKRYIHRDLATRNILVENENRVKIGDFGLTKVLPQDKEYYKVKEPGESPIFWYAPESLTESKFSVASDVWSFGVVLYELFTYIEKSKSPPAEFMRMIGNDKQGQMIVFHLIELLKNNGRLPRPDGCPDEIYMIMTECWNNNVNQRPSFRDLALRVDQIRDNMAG

For `COCCNc1nc(N[C@@H](C)c2ccc(F)cc2)cc(-c2c(N)nn3cccnc23)n1` [Compound 119], the Ki (usually a measure of affinity in units of concentration, obtained from inhibition or displacement) is < 10 nM in experiment [1] and 10 to 100 nM in experiment [2].

`Nc1nn2cccnc2c1-c1cc(NCc2ccc(C(F)(F)F)cc2F)ncn1` [Compound 46]: the results for the Ki in experiment [1] and in experiment [2] were < 10 nM and 10 to 100 nM, respectively.

With `CCC[C@H](Nc1cc(-c2c(N)nn3cccnc23)ncn1)c1ccc(F)c(F)c1` [Compound 98], the Ki in experiment [1] is < 10 nM; in experiment [2] it was 10 to 100 nM.

In the case of `CCC(=O)Nc1nc(N[C@@H](C)c2ccc(F)cc2F)cc(-c2cnn3cccnc23)n1` [Compound 188], the Ki is < 10 nM in experiment [1] and 100 to 500 nM in experiment [2].

Take `C[C@H](Nc1cc(-c2c(N)nn3cccnc23)nc(OCC2CCCC2)n1)c1ccc(F)cc1` [Compound 176]: the Ki in experiment [1] was in the range of 10 to 100 nM; in experiment [2] it was 100 to 500 nM.

For the compound `C[C@H](Nc1cc(-c2cnn3cccnc23)nc(N)n1)c1ccc(F)cc1F` [Compound 147], the Ki is < 10 nM in experiment [1] and 10 to 100 nM in experiment [2].

For the compound `COC(C)(C)CCOc1nc(N[C@@H](C)c2ccc(F)cc2)cc(-c2c(N)nn3cccnc23)n1` [Compound 178], the Ki was < 10 nM in experiment [1] and 10 to 100 nM in experiment [2].

Consider `C[C@H](Nc1cc(-c2cnn3cccnc23)nc(OCCCN(C)C)n1)c1ccc(F)cc1F` [Compound 211], for which the Ki is < 10 nM in experiment [1] and 10 to 100 nM in experiment [2].

As to `CC(C)[C@H](Nc1cc(-c2cnn3cccnc23)ncn1)c1ccc(F)cc1F` [Compound 121], the Ki in experiment [1] is < 10 nM; in experiment [2], 10 to 100 nM.

`CCC[C@H](Nc1cc(-c2c(N)nn3cccnc23)nc(S(C)(=O)=O)n1)c1ccc(F)cc1F` [Compound 112]: the values for the Ki in experiment [1] and in experiment [2] were < 10 nM and 10 to 100 nM, respectively.

Regarding `Nc1nn2cccnc2c1-c1cc(N[C@H]2CCCc3ccccc32)ncn1` [Compound 76], the Ki in experiment [1] was 10 to 100 nM; in experiment [2], 100 to 500 nM.

Regarding `C[C@H](Nc1cc(-c2c(N)nn3cccnc23)nc(OCC2CCCO2)n1)c1ccc(F)cc1F` (some centres unmarked) [Compound 139], the values for the Ki in experiment [1] and in experiment [2] were < 10 nM and 10 to 100 nM, respectively.

For `Nc1nn2cccnc2c1-c1cc(OC(c2ccccc2)C2CC2)ncn1` (centres unmarked) [Compound 66], the results for the Ki in experiment [1] and in experiment [2] were 500 to 5000 nM and > 5000 nM, respectively.

Turning to `C=COCCCCOc1nc(N[C@@H](C)c2ccc(F)cc2)cc(-c2c(N)nn3cccnc23)n1` [Compound 174], the Ki in experiment [1] lay within 10 to 100 nM; in experiment [2] it was 100 to 500 nM.

Turning to `C[C@H](Nc1cc(-c2c(N)nn3cccnc23)nc(OCC2COC(C)(C)O2)n1)c1ccc(F)cc1` (some centres unmarked) [Compound 168], the Ki in experiment [1] is < 10 nM; in experiment [2] it was 10 to 100 nM.

Regarding `C[C@H](Nc1cc(-c2c(N)nn3cccnc23)nc(OCC2CC2)n1)c1ccc(F)cc1` [Compound 166], the Ki was < 10 nM in experiment [1] and 10 to 100 nM in experiment [2].

In the case of `Nc1nn2cccnc2c1-c1cc(NCc2ccccc2OC(F)(F)F)ncn1` [Compound 14], the Ki in experiment [1] is < 10 nM; in experiment [2] it was 10 to 100 nM.

Regarding `CCC[C@H](Nc1cc(-c2c(N)nn3ccc(C(F)(F)F)nc23)ncn1)c1ccc(F)cc1F` [Compound 137], the Ki in experiment [1] and in experiment [2] was 100 to 500 nM throughout.

In the case of `CC(C)OCCOc1nc(N[C@@H](C)c2ccc(F)cc2)cc(-c2c(N)nn3cccnc23)n1` [Compound 149], the Ki in experiment [1] was < 10 nM; in experiment [2] it was 10 to 100 nM.

With `CCC[C@H](Nc1cc(-c2c(N)nn3cccnc23)nc(N2CCOCC2)n1)c1ccc(F)cc1F` [Compound 107], the Ki in experiment [1] lay within 10 to 100 nM; in experiment [2] it was 100 to 500 nM.

As to `COCCN(C)c1nc(N[C@@H](C)c2ccc(F)cc2F)cc(-c2c(N)nn3cccnc23)n1` [Compound 133], the Ki was 10 to 100 nM in experiment [1] and 100 to 500 nM in experiment [2].

For the compound `C[C@H](Nc1cc(-c2cnn3cccnc23)nc(OCCN(C)C)n1)c1ccc(F)cc1F` [Compound 197], the Ki in experiment [1] is < 10 nM; in experiment [2], 10 to 100 nM.

Consider `C[C@H](Nc1cc(-c2c(N)nn3cccnc23)nc(OCC2CCCN(C)C2)n1)c1ccc(F)cc1` (some centres unmarked) [Compound 171], for which the Ki in experiment [1] and in experiment [2] was 10 to 100 nM in each case.

Regarding `O=C(Nc1ccnc(-c2cnn3cccnc23)c1)c1ccc(F)cc1` [Compound 227], the Ki in experiment [1] lay in the range of 100 to 500 nM; in experiment [2], 500 to 5000 nM.

As to `CC(C)[C@@H](Nc1cc(-c2c(N)nn3cccnc23)nc(N2CCOCC2)n1)c1ccc(F)cc1F` [Compound 104], the Ki in experiment [1] fell in the range of 100 to 500 nM; in experiment [2], 500 to 5000 nM.

Take `Nc1nn2cccnc2c1-c1cc(NC2(c3ccc(F)cc3)CC2)ncn1` [Compound 90]: the values for the Ki in experiment [1] and in experiment [2] were < 10 nM and 10 to 100 nM, respectively.

Take `C#CCOc1nc(N[C@@H](C)c2ccc(F)cc2)cc(-c2c(N)nn3cccnc23)n1` [Compound 150]: the Ki is < 10 nM in experiment [1] and 10 to 100 nM in experiment [2].

Consider `C[C@H](Nc1cc(-c2cnn3cccnc23)nc(OCCN2CCOCC2)n1)c1ccc(F)cc1F` [Compound 213], for which the Ki was < 10 nM in experiment [1] and 10 to 100 nM in experiment [2].

`C#CCCCOc1nc(N[C@@H](C)c2ccc(F)cc2)cc(-c2c(N)nn3cccnc23)n1` [Compound 183]: the Ki was < 10 nM in experiment [1] and 10 to 100 nM in experiment [2].

On to `CC[C@H](Nc1cc(-c2c(N)nn3cccnc23)ncn1)c1ccc(F)c(F)c1` [Compound 62], for which the Ki in experiment [1] was < 10 nM; in experiment [2], 10 to 100 nM.

Take `COc1cc2c(cc1OC)CN(c1cc(-c3c(N)nn4cccnc34)ncn1)CC2` [Compound 35]: the inhibition constant (Ki) in experiment [1] and in experiment [2] was 100 to 500 nM throughout.

For `C[C@H](Nc1cc(-c2c(N)nn3cccnc23)ncn1)c1ccc(F)cc1Cl` [Compound 80], the figures for the Ki in experiment [1] and in experiment [2] were < 10 nM and 10 to 100 nM, respectively.

As for `CCC#CC(C)Oc1nc(N[C@@H](C)c2ccc(F)cc2)cc(-c2c(N)nn3cccnc23)n1` (some centres unmarked) [Compound 179], the values for the Ki in experiment [1] and in experiment [2] were 10 to 100 nM and 500 to 5000 nM, respectively.

For the compound `C[C@H](Nc1cc(-c2c(N)nn3cccnc23)nc(OCC2CCOC2)n1)c1ccc(F)cc1F` (some centres unmarked) [Compound 130], the Ki in experiment [1] was < 10 nM; in experiment [2] it was 10 to 100 nM.

Take `CCN(CC)CCOc1nc(N[C@@H](C)c2ccc(F)cc2)cc(-c2c(N)nn3cccnc23)n1` [Compound 99]: the Ki in experiment [1] was < 10 nM; in experiment [2], 10 to 100 nM.

Turning to `Nc1nn2cccnc2c1-c1cc(N2Cc3ccccc3C2)ncn1` [Compound 27], the Ki in experiment [1] lay within 10 to 100 nM; in experiment [2], 100 to 500 nM.

Take `OCC[C@H](Nc1cc(-c2cnn3cccnc23)ncn1)c1ccccc1` [Compound 115]: the Ki in experiment [1] and in experiment [2] was 10 to 100 nM in each case.

For the compound `CNC(=O)CC(Nc1cc(-c2cnn3cccnc23)ncn1)c1ccc(F)cc1` (centres unmarked) [Compound 141], the Ki in experiment [1] was < 10 nM; in experiment [2], 10 to 100 nM.

With `C[C@H](Nc1cc(-c2c(N)nn3cccnc23)nc(N2CCOCC2)n1)c1ccc(F)cc1` [Compound 96], the figures for the Ki in experiment [1] and in experiment [2] were < 10 nM and 10 to 100 nM, respectively.

Turning to `C=CCCOc1nc(N[C@@H](C)c2ccc(F)cc2)cc(-c2c(N)nn3cccnc23)n1` [Compound 170], the Ki was < 10 nM in experiment [1] and 10 to 100 nM in experiment [2].

On to `CC[C@H](Nc1cc(-c2cnn3cccnc23)ncn1)c1ccc(F)c(F)c1` [Compound 145], for which the Ki was < 10 nM in experiment [1] and 10 to 100 nM in experiment [2].

Regarding `CC1CC1COc1nc(N[C@@H](C)c2ccc(F)cc2)cc(-c2c(N)nn3cccnc23)n1` (some centres unmarked) [Compound 158], the Ki in experiment [1] lay within 10 to 100 nM; in experiment [2] it was 100 to 500 nM.

On to `C[C@H](Nc1cc(-c2c(N)nn3cccnc23)nc(OC[C@H]2CO2)n1)c1ccc(F)cc1` [Compound 159], for which the Ki was < 10 nM in experiment [1] and 100 to 500 nM in experiment [2].

For the compound `Nc1nn2cccnc2c1-c1cc(OCc2ccc(C(F)(F)F)cc2)ncn1` [Compound 72], the values for the Ki in experiment [1] and in experiment [2] were 100 to 500 nM and > 5000 nM, respectively.

In the case of `C[C@H](Nc1cc(-c2c(N)nn3cccnc23)nc(N2CCC(N(C)C)C2)n1)c1ccc(F)cc1` (some centres unmarked) [Compound 190], the Ki in experiment [1] was < 10 nM; in experiment [2], 10 to 100 nM.

In the case of `CC(C)[C@H](Nc1cc(-c2c(N)nn3cccnc23)nc(N2CCOCC2)n1)c1ccc(F)cc1F` [Compound 125], the inhibitory constant (Ki) in experiment [1] lay in the range of 10 to 100 nM; in experiment [2], 100 to 500 nM.

The values above are taken from US8937064B2, “Pyrazolo[1,5-a]pyrimidines useful as JAK2 inhibitors” (Vertex Pharmaceuticals Incorporated, priority 2007, dated 2015).
